# Results published in patent US10091997B2, “Composition for inhibition of insect host sensing” (Vanderbilt University, priority 2010, dated 2018).
# Columns and labels:
# AgORco+AgOR10 = experiment: whole-cell patch clamp, HEK293 cells expressing AgORco+AgOR10; assay type: cell-based, Anopheles gambiae; settings: for whole-cell currents: AgORco+AgOR10 cells, clamped at −60 mV
# Protocol: (§1) Currents from OR-expressing HEK293 cells were amplified with an Axopatch 200b Amplifier (Axon Instruments) and digitized through a Digidata 1322A (Axon Instruments). Electrophysiological data was recorded and analyzed using pCLAMP 10 (Axon Instruments). Electrodes were fabricated from quartz tubing (Sutter Instruments) and pulled to 4-6 MΩ for whole cell recording. Electrodes were filled with internal solution (120 mM KCl, 30 mM D-glucose, 10 mM HEPES, 2 mM MgCl2, 1.1 mM EGTA, and 0.1 CaCl2 (pH 7.35, 280 mOsm). External (bath) solution contained 130 mM NaCl, 34 mM D-glucose, 10 mM HEPES, 1.5 mM CaCl2, 1.3 mM KH2PO4, and 0.5 MgSO4 (pH 7.35, 300 mOsm). Compounds were diluted in external solution and locally perfused to the recording cell using Perfusion Pencil (Automate Scientific) and controlled by a ValveLink 8.2 controller (Automate Scientific). Whole cell recordings were sampled at 10 kHz and filtered at 5 kHz. Outside-out patches were obtained using 10-15MΩ electrodes pulled from standard glass capillaries (World Precision Instruments) and fire-polished with an MF-830 micro forge (Narishige). Single channel recordings were sampled at 20 kHz. Recordings were reduced to 1 kHz and low-pass filtered at 500 Hz for display and analysis using QuB (SUNY at Buffalo).
# (§2) To test the hypothesis that VUAA1 directly agonized AgORco, whole-cell patch clamp responses were examined in AgORco+AgOR10 expressing cells as well HEK293 cells stably expressing AgORco alone. […] The VUAA1-dependent currents in AgORco+AgOR10 cells resembled those resulting from application of benzaldehyde, an orthosteric agonist of AgOR10 (FIG. 3C) (Wang, 2010; Carey, 2010). AgORco+AgOR10 cells were more sensitive to VUAA1 than AgORco cells, producing inward currents at −5.0 log M, a concentration at which AgORco had no response. […] To investigate the specificity of VUAA1 agonism, the inventors transiently transfected HEK cells with the AgORco orthologs of Drosophila melanogaster and Heliothis virescens, DmOR83b and HvOR2 respectively.
# AgORco = target: T1, AgORco (Anopheles gambiae, UniProt Q7QCC7); experiment: whole-cell patch clamp, HEK293 cells stably expressing AgORco alone; assay type: cell-based; settings: for whole-cell currents: AgORco alone cells, clamped at −60 mV
# T1 construct: expressed in transfected cells
# T1 sequence (Q7QCC7 1-478): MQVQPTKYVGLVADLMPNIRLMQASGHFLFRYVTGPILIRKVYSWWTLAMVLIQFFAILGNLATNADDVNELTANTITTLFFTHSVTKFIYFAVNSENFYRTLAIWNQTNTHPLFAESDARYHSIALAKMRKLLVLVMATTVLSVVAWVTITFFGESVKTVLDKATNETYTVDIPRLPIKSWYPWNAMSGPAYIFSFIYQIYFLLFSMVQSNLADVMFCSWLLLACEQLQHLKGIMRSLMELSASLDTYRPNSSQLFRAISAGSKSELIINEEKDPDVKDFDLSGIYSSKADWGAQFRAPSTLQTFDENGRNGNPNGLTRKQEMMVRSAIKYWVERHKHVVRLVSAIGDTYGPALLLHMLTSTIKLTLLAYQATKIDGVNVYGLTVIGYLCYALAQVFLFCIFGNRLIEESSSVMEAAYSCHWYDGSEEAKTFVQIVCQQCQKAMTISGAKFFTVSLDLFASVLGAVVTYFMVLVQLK
# Protocol: as §1, §2
# [1] = target: T2, rat transient receptor potential vanilloid 1 (rTRPV1) (Rattus norvegicus, UniProt O35433); experiment: whole-cell patch clamp, HEK cells stably expressing rTRPV1; assay type: cell-based
# T2 construct: expressed in transfected cells
# T2 sequence (O35433 whole entry): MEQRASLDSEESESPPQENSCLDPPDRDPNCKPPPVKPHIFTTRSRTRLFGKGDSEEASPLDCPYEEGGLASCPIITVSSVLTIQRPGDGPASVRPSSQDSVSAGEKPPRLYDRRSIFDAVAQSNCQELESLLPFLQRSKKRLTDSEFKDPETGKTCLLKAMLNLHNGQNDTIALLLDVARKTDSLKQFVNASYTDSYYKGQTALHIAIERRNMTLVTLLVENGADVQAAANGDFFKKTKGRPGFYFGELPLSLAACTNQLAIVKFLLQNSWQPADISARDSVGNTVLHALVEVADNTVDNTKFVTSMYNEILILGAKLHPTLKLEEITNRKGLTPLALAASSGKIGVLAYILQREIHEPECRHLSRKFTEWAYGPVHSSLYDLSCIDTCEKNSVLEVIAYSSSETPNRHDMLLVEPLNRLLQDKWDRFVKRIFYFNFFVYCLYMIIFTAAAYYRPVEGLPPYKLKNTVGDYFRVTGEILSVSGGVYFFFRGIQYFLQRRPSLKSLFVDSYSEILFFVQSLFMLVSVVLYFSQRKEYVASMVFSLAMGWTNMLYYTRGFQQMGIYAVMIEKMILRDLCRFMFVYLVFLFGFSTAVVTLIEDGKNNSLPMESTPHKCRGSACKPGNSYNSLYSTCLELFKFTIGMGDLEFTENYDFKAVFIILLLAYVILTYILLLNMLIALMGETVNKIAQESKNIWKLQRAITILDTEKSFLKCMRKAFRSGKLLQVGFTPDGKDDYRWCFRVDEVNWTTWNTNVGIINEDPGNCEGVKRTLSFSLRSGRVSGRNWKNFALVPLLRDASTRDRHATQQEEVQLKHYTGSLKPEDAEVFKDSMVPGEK
# Text: To determine the broad-spectrum specificity of VUAA1, the inventors tested VUAA1 on another non-selective cation channel, transient receptor potential vanilloid receptor 1 (TRPV1) (Caterina, 1997; Bohlen, 2010).
# [2] = system: Un-transfected HEK293 cells; experiment: whole-cell patch clamp, control HEK293 cells (un-transfected or GFP alone); assay type: cell-based, human
# Protocol: as §1
compound,measurement,setting,value
Nc1ncnc2c1nc(Br)n2[C@@H]1O[C@@H]2COP(=O)(O)O[C@H]2[C@H]1O [8-Br cAMP],whole-cell currents,AgORco+AgOR10,unable to evoke whole-cell currents
same,whole-cell currents,AgORco,unable to evoke whole-cell currents
Nc1nc2c(nc(Br)n2[C@@H]2O[C@@H]3COP(=O)(O)O[C@H]3[C@H]2O)c(=O)[nH]1 [8-Br cGMP],whole-cell currents,AgORco+AgOR10,unable to evoke whole-cell currents
same,whole-cell currents,AgORco,unable to evoke whole-cell currents
"COc1cc(CNC(=O)CCCC/C=C/C(C)C)ccc1O [Capsaicin, reference compound]",whole-cell currents,[1],elicited a robust response
"N.N.N.N.N.N.N.N.N.N.N.N.N.N.[Cl-].[Cl-].[Cl-].[Cl-].[Cl-].[Cl-].[O-2].[O-2].[Ru+3].[Ru+3].[Ru+4] [RR, ruthenium red]",reduction of VUAA1-elicited currents,"AgORco+AgOR10; AgOrco+AgOR10 cells, agonist VUAA1",68.3±2.8%
same,reduction of benzaldehyde-elicited currents,"AgORco+AgOR10; AgOrco+AgOR10 cells, agonist benzaldehyde",87.8±1.8%
same,reduction of VUAA1 responses,"AgORco; AgORco cells, agonist VUAA1",79.4±4.0%
"O=Cc1ccccc1 [benzaldehyde, reference compound]",whole-cell currents,AgORco+AgOR10,concentration-dependent responses
same,whole-cell currents,AgORco,only AgORco+AgOR10 cells responded to BA
same,whole-cell currents in GFP alone cells,[2]; HEK cells transfected with GFP alone,no currents
same,whole-cell currents in control cells,[2]; control / un-transfected HEK293 cells,did not respond
